Results as given in patent publication US20240317777A1, “NOVEL MACROCYCLIC AMINOPYRAZOLE COMPOUNDS AS CDK2 INHIBITORS” (Accutar Biotechnology Inc., priority 2023, published 2024).
Like-named read-outs stand apart in the source and are kept apart here.

Legend:
CDK1-CYCLIN B = CDK1-CYCLIN B (Homo sapiens, UniProt P06493); test: CDK protein kinase inhibition by ADP-Glo assay, CDK1-CYCLIN B; format: biochemical; settings: for IC50: ADP-Glo, 1000 μM ATP, read-out: CDK1-CYCLINB, IC50; for CDK2 Fold selectivity, CDK1: CDK2 versus CDK1
In short: (§1)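 Kinase/cyclin + peptide substrate + cpd + ATP (1000 μM)/MgCl2 (5 mM), HEPES pH 7.5, 22° C; quench, ADP-Glo reagent 45 min RT, detection reagent 10 min, luminescence.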

CDK4-CYCLIN D1 = CDK4-CYCLIN D1 (Homo sapiens, UniProt P11802); test: CDK protein kinase inhibition by ADP-Glo assay, CDK4-CYCLIN D1; format: biochemical; settings: for IC50: ADP-Glo, 1000 μM ATP, read-out: CDK4-CYCLIND1, IC50; for CDK2 Fold selectivity, CDK4: CDK2 versus CDK4
In short: as §1

[1] = test system: CCNE1-amplified OVCAR3 cells; test: Cell growth inhibition of CCNE1-amplified OVCAR3 cells (CellTiter-Glo); format: cell-based; settings: Homo sapiens, OVCAR-3, 144 h, 6 days
In short: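 Growth read-out was CellTiter-Glo luminescence, taken after 10 min at room temperature at the end of a 6-day compound exposure at 37 °C. Compounds were diluted from DMSO stocks across various concentrations.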

CCNE1-normal SKOV3 cells = test: Cell growth inhibition of CCNE1-normal SKOV3 cells (CellTiter-Glo); format: cell-based; settings: Homo sapiens, SK-OV-3, 144 h, 6 days
In short: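 Growth was measured by CellTiter-Glo luminescence after 6 days' compound exposure at 37 °C. Cells were plated one day before dosing at 1000 per well in medium with 10% FBS, and compounds were diluted from DMSO stocks.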

[2] = test system: Phospho-Rb (Ser807/811) in OVCAR3 cells; test: Phospho-Rb expression inhibition in OVCAR3 cells quantified by In Cell Western; format: cell-based; settings: Homo sapiens, OVCAR-3, 24 hours, read-out: OVCAR-3 pRb IC50
In short: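 In-cell western: after 24 h compound exposure at 37° C, fixed OVCAR3 cells co-stained for pRb Ser807/811 (800 nm channel) and total Rb (680 nm channel), imaged by LI-COR Odyssey.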

CDK9-CYCLIN T1 = CDK9-CYCLIN T1 (Homo sapiens, UniProt P50750); test: CDK protein kinase inhibition by ADP-Glo assay, CDK9-CYCLIN T1; format: biochemical; settings: for IC50: ADP-Glo, 1000 μM ATP, read-out: CDK9-CYCLINT1, IC50; for CDK2 Fold selectivity, CDK9: CDK2 versus CDK9
In short: as §1

CDK6-CYCLIN D3 = CDK6-CYCLIN D3 (Homo sapiens, UniProt Q00534); test: CDK protein kinase inhibition by ADP-Glo assay, CDK6-CYCLIN D3; format: biochemical; settings: for IC50: ADP-Glo, 1000 μM ATP, read-out: CDK6-CYCLIND3, IC50; for CDK2 Fold selectivity, CDK6: CDK2 versus CDK6
In short: as §1

CDK2-CYCLIN E1 = CDK2-CYCLIN E1 (Homo sapiens, UniProt P24941); test: CDK protein kinase inhibition by ADP-Glo assay, CDK2-CYCLIN E1; format: biochemical; settings: ADP-Glo, 1000 μM ATP, read-out: CDK2-CYCLINE, IC50
In short: as §1

Sequence of CDK9-CYCLIN T1 (P50750 whole entry): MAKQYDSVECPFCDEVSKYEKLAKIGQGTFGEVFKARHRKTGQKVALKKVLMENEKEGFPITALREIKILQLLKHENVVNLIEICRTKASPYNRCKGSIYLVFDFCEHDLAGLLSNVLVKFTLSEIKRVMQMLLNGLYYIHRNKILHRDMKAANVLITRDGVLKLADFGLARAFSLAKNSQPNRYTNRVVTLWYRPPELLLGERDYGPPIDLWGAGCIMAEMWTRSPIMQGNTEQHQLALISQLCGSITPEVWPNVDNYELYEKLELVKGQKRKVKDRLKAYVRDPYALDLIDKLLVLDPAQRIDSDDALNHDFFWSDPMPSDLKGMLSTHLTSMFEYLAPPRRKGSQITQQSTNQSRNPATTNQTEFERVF
Sequence of CDK9-CYCLIN T1 (O60563 whole entry partner): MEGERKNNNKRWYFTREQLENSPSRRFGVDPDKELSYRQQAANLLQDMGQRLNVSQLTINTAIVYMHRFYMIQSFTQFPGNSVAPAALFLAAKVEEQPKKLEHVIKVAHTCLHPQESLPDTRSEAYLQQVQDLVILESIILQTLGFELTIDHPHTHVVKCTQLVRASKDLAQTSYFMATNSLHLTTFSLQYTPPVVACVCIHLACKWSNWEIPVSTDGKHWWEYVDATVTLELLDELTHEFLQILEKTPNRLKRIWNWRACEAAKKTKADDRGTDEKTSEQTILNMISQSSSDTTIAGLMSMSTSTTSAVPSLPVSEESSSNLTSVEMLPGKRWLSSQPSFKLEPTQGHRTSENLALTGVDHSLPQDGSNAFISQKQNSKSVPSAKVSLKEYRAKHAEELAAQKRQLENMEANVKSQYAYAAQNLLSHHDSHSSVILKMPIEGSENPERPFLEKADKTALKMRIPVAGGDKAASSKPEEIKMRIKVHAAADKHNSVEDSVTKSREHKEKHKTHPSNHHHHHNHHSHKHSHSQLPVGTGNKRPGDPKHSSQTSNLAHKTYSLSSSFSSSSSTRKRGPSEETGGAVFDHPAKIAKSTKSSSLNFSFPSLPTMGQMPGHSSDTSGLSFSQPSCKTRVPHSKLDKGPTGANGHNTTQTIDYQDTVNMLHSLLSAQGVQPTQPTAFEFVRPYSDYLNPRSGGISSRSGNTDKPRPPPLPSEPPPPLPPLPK
Sequence of CDK4-CYCLIN D1 (P11802 whole entry): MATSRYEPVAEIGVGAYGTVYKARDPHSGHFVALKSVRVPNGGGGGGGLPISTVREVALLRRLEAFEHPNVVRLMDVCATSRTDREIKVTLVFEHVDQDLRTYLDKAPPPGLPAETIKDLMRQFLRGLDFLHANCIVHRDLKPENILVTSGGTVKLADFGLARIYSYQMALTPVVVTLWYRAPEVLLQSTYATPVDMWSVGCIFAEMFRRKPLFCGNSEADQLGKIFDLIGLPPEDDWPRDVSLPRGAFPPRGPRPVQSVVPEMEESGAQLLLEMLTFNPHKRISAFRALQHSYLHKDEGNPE
Sequence of CDK4-CYCLIN D1 (P24385 whole entry partner): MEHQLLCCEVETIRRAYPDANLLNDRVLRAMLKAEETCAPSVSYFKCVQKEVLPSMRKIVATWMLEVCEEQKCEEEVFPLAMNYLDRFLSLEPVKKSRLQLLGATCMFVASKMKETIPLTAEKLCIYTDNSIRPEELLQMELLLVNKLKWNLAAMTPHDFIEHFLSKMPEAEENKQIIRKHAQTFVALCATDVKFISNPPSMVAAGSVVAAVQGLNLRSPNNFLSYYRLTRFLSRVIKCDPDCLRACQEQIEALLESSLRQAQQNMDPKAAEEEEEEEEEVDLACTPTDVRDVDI
Sequence of CDK6-CYCLIN D3 (Q00534 whole entry): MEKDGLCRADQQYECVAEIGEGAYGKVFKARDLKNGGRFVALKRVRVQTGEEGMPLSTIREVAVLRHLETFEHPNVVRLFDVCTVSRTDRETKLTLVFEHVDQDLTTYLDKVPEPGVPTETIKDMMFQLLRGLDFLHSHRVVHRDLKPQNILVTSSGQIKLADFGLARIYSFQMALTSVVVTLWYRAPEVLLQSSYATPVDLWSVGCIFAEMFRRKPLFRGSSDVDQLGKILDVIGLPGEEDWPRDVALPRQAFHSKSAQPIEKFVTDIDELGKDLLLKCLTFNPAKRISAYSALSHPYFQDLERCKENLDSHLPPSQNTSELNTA
Sequence of CDK6-CYCLIN D3 (P30281 whole entry partner): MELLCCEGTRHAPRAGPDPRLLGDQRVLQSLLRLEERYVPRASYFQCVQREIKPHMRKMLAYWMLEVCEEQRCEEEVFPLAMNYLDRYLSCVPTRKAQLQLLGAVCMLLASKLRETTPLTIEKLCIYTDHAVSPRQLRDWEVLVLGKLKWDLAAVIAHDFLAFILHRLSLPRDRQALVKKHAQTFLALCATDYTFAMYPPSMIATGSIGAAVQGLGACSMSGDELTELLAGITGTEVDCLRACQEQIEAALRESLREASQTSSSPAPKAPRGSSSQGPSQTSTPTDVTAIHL
Sequence of CDK1-CYCLIN B (P06493 whole entry): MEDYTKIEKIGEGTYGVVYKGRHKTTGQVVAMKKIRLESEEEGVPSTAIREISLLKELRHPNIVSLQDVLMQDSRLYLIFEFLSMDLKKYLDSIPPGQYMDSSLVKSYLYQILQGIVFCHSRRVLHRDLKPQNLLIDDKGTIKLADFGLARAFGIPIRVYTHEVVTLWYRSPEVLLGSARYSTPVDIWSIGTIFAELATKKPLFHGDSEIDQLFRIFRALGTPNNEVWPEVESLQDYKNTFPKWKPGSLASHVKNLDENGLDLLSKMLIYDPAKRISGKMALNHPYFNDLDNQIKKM
Sequence of CDK1-CYCLIN B (P14635 whole entry partner): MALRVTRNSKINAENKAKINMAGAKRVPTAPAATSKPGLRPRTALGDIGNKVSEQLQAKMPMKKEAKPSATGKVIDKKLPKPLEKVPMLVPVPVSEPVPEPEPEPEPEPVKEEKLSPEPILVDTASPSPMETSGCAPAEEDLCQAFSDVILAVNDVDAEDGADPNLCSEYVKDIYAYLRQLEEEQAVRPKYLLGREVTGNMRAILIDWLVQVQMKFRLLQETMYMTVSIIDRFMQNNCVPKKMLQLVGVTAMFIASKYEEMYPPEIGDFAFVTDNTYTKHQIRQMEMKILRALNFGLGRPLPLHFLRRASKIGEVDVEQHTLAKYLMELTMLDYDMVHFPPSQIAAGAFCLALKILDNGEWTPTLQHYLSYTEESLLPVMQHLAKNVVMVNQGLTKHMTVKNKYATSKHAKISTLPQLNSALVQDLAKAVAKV

| SMILES | IC50 (CDK1-CYCLIN B; Table 21) [nM] | CDK2 Fold selectivity, CDK1 (CDK1-CYCLIN B; Table 22) | IC50 (CDK4-CYCLIN D1; Table 21) [nM] | CDK2 Fold selectivity, CDK4 (CDK4-CYCLIN D1; Table 22) | IC50 [1] [nM] | IC50 (CCNE1-normal SKOV3 cells) [nM] | IC50 [2] [nM] | IC50 (CDK9-CYCLIN T1; Table 21) [nM] | CDK2 Fold selectivity, CDK9 (CDK9-CYCLIN T1; Table 22) | IC50 (CDK6-CYCLIN D3; Table 21) [nM] | CDK2 Fold selectivity, CDK6 (CDK6-CYCLIN D3; Table 22) | IC50 (CDK2-CYCLIN E1; Table 21) [nM] | further results |
| --- | --- | --- | --- | --- | --- | --- | --- | --- | --- | --- | --- | --- | --- |
| C[C@H]1Oc2cncc(c2)Nc2cc(n[nH]2)[C@H]2CC[C@H](C2)OC(=O)N[C@H]2C[C@H]1C2 [Compound 148, (1^1S,1^3R,7^1R,7^3R,6R,Z)-6-methyl-2^1H-5,10-dioxa-3,8-diaza-4(3,5)-pyridina-2(3,5)-pyrazola-1(1,3)-cyclopentana-7(1,3)-cyclobutanacyclodecaphan-9-one] | 10 to 50 | E (E, <20) | 50 to 100 | E (E, <20) | 2 to 10 | 250 to 1250 | ≤ 2 | 100 to 500 | D (D, >20 and ≤50) | 50 to 100 | D (D, >20 and ≤50) | ≤ 10 | – |
| C[C@@H]1Oc2cncc(c2)Nc2cc(n[nH]2)[C@H]2CC[C@H](C2)OC(=O)N[C@H]2C[C@@H]1C2 [Compound 149, (1^1S,1^3R,7^1S,7^3R,6S,Z)-6-methyl-2^1H-5,10-dioxa-3,8-diaza-4(3,5)-pyridina-2(3,5)-pyrazola-1(1,3)-cyclopentana-7(1,3)-cyclobutanacyclodecaphan-9-one] | – | – | – | – | 10 to 50 | > 1250 | 10 to 50 | – | – | – | – | – | IC50 (CDK1-CYCLIN B; Table 23): 100 to 500 nM; CDK2 Fold selectivity, CDK1 (CDK1-CYCLIN B; Table 24): E (E, <20); IC50 (CDK4-CYCLIN D1; Table 23): 100 to 500 nM; CDK2 Fold selectivity, CDK4 (CDK4-CYCLIN D1; Table 24): E (E, <20); IC50 (CDK9-CYCLIN T1; Table 23): > 500 nM; CDK2 Fold selectivity, CDK9 (CDK9-CYCLIN T1; Table 24): C (C, >50 and ≤100); IC50 (CDK6-CYCLIN D3; Table 23): > 500 nM; CDK2 Fold selectivity, CDK6 (CDK6-CYCLIN D3; Table 24): D (D, >20 and ≤50); IC50 (CDK2-CYCLIN E1; Table 23): 10 to 50 nM |
| C[C@@H]1Oc2cncc(c2)Nc2cc(n[nH]2)[C@H]2CC[C@H](C2)OC(=O)N[C@H]2C[C@H]1C2 [Compound 150, (1^1S,1^3R,7^1R,7^3S,6S,Z)-6-methyl-2^1H-5,10-dioxa-3,8-diaza-4(3,5)-pyridina-2(3,5)-pyrazola-1(1,3)-cyclopentana-7(1,3)-cyclobutanacyclodecaphan-9-one] | 10 to 50 | E (E, <20) | 100 to 500 | D (D, >20 and ≤50) | 2 to 10 | 250 to 1250 | 2 to 10 | 100 to 500 | B (B, >100 and ≤500) | 50 to 100 | D (D, >20 and ≤50) | ≤ 10 | – |
| C[C@H]1CC[C@H](C)Oc2cncc(c2)Nc2cc(n[nH]2)[C@H]2CC[C@H](C2)OC(=O)N1 [Compound 151, (1^1S,1^3R,6S,9S,Z)-6,9-dimethyl-2^1H-5,12-dioxa-3,10-diaza-4(3,5)-pyridina-2(3,5)-pyrazola-1(1,3)-cyclopentanacyclododecaphan-11-one] | ≤ 10 | E (E, <20) | 50 to 100 | D (D, >20 and ≤50) | 2 to 10 | 250 to 1250 | 2 to 10 | 100 to 500 | D (D, >20 and ≤50) | 50 to 100 | D (D, >20 and ≤50) | ≤ 10 | – |
| C[C@@H]1CC[C@H](C)Oc2cncc(c2)Nc2cc(n[nH]2)[C@H]2CC[C@H](C2)OC(=O)N1 [Compound 152, (1^1S,1^3R,6S,9R,Z)-6,9-dimethyl-2^1H-5,12-dioxa-3,10-diaza-4(3,5)-pyridina-2(3,5)-pyrazola-1(1,3)-cyclopentanacyclododecaphan-11-one] | 10 to 50 | E (E, <20) | 50 to 100 | D (D, >20 and ≤50) | 10 to 50 | 250 to 1250 | 2 to 10 | 100 to 500 | D (D, >20 and ≤50) | 50 to 100 | E (E, <20) | ≤ 10 | – |
| C[C@H]1CCCNC(=O)O[C@@H]2CC[C@@H](C2)c2cc([nH]n2)Nc2cnnc(c2)O1 [Compound 155, (1^1S,1^3R,6S,Z)-6-methyl-2^1H-5,12-dioxa-3,10-diaza-4(5,3)-pyridazina-2(3,5)-pyrazola-1(1,3)-cyclopentanacyclododecaphan-11-one] | – | – | – | – | 50 to 250 | > 1250 | 10 to 50 | – | – | – | – | – | IC50 (CDK1-CYCLIN B; Table 25): 10 to 50 nM; CDK2 Fold selectivity, CDK1 (CDK1-CYCLIN B; Table 26): E (E, <20); IC50 (CDK4-CYCLIN D1; Table 25): 100 to 500 nM; CDK2 Fold selectivity, CDK4 (CDK4-CYCLIN D1; Table 26): D (D, >20 and ≤50); IC50 (CDK9-CYCLIN T1; Table 25): > 500 nM; CDK2 Fold selectivity, CDK9 (CDK9-CYCLIN T1; Table 26): B (B, >100 and ≤500); IC50 (CDK6-CYCLIN D3; Table 25): 100 to 500 nM; CDK2 Fold selectivity, CDK6 (CDK6-CYCLIN D3; Table 26): D (D, >20 and ≤50); IC50 (CDK2-CYCLIN E1; Table 25): ≤ 10 nM |
| C[C@H]1CCCNC(=O)O[C@@H]2CC[C@@H](C2)c2cc([nH]n2)Nc2cccc(c2)O1 [Compound 157, (1^1S,1^3R,6S,Z)-6-methyl-2^1H-5,12-dioxa-3,10-diaza-2(3,5)-pyrazola-4(1,3)-benzena-1(1,3)-cyclopentanacyclododecaphan-11-one] | 50 to 100 | E (E, <20) | 100 to 500 | D (D, >20 and ≤50) | 10 to 50 | 250 to 1250 | 10 to 50 | 100 to 500 | C (C, >50 and ≤100) | 100 to 500 | D (D, >20 and ≤50) | ≤ 10 | – |
| O=C1NCCCO[C@@H](C(F)(F)F)c2cc(ccn2)Nc2cc(n[nH]2)[C@H]2CC[C@H](C2)O1 [Compound 161, (1^1S,1^3R,5R,Z)-5-(trifluoromethyl)-2^1H-6,12-dioxa-3,10-diaza-4(4,2)-pyridina-2(3,5)-pyrazola-1(1,3)-cyclopentanacyclododecaphan-11-one] | ≤ 10 | E (E, <20) | 10 to 50 | E (E, <20) | ≤ 2 | 50 to 250 | ≤ 2 | 10 to 50 | E (E, <20) | 10 to 50 | E (E, <20) | ≤ 10 | – |
